# Data taken from patent US5103007A, “Lipids” (Takeda Chemical Industries, Ltd., priority 1988, dated 1992).
# What was measured:
# [1] = tested on: human nasopharynx cancer (KB cells); assay: Inhibition of multiplication of human nasopharynx cancer (KB cells), MTT assay; assay type: cell-based; conditions: 72 hours
# Protocol: (§1) The effect (IC50) of the compounds obtained by Examples in inhibiting multiplication of human nasopharynx cancer (KB cells) and human colon adenocarcinoma (colon 205 cells) Each well of a 96-well microtiter plate was inoculated with 0.1 ml of human nasopharynx cancer (KB cells) (1×10^4 /ml) or human colon adenocarcinoma (colon 205 cells) (2×10^4 /ml), which was then subjected to cultivation by allowing to stand at 37° C. for 24 hours in 5% CO2. To the culture was added a 10% MEM solution (manufactured by Nissui Seiyaku or RPMI-1640), and cultivation was continued at 37° C. for 72 hours in 5% CO2. Then, the culture solution was removed with a micro-pipette. […] Incubation was conducted at 37° C for 4 hours, to which was then added 0.1 ml of a 10% SDS (Wako Pure Chemical Industries, Ltd.), and the incubation was continued at 37° C. for 24 hours.
# [2] = tested on: human colon adenocarcinoma (colon 205 cells); assay: Inhibition of multiplication of human colon adenocarcinoma (colon 205 cells), MTT assay; assay type: cell-based; conditions: 72 hours
# Protocol: as §1
IC50 [1] [mg/L],IC50 [2] [mg/L],SMILES
0.32,2.5,"CCCCCCCCCCCCCCCCCCOCC(CSCCOCC[n+]1ccn(CCCCCC(=O)OCC)c1)Oc1ncccn1 (stereo not drawn) [Ex. 25, 1-[(5-ethoxycarbonyl)pentyl]-3-[2-[2-[3-octadecyloxy-2-(pyrimidin-2-yloxy)propylthio]ethoxy]ethyl]imidazolium chloride]"
0.32,0.63,"CCCCCCCCCCCCCCCCCCOCC(C[S+]([O-])CCOCC[n+]1ccc2ccccc2c1)Oc1ncccn1.[Cl-] (stereo not drawn) [Ex. 4, N-[2-[2-[3-octadecyloxy-2-(pyrimidin-2-yloxy)propylsulfinyl]ethoxy]ethyl]isoquinolinium chloride]"
< 0.08,0.63,"[Cl-].[O-][S+](CCOCC[n+]1ccccc1)CC(COCCCCCCCCCCCCC1CCCCC1)Oc1ncccn1 (stereo not drawn) [Ex. 29, 1-[2-[2-[3-(12-cyclohexyldodecyloxy)-2-(pyrimidin-2yloxy)propylsulfinyl]ethoxy]ethyl]pyridinium chloride]"
0.63,2.5,"CCCCCCCCCCCCCCCCCCOCC(CSCCOCC[n+]1ccn(CCCC(=O)[O-])c1)OC (stereo not drawn) [Ex. 45, 4-[3-[2-[2(2-methoxy-3-octadecyloxypropylthio)ethoxy]ethyl]imidazolio-1-yl]butyrate]"
0.63,0.63,"CCCCCCCCCCCCCCCCCCOCC(CSCCOCC[N+](C)(C)C)Oc1ncccn1.[Cl-] (stereo not drawn) [Ex. 23, N-[2-[2-[3-octadecyloxy-2-(pyrimidin-2-yloxy)propylthio]ethoxy]ethyl]-N,N,N-trimethylammonium chloride]"
1.25,0.63,"CCCCCCCCCCCCCCCCCCOCC(CSCCOCC[n+]1ccn(CCC(C)(C)C(=O)OCC)c1)Oc1ncccn1 (stereo not drawn) [Ex. 26, 1-[(3-ethoxycarbonyl-3-methyl)butyl]-3-[2-[2-[3-octadecyloxy-2-(pyrimidin-2-yloxy)propylthio]-ethoxy]ethyl]imidazolium choride]"
0.16,0.32,"CCCCCCCCCCCCCCCCCCOCC(C[S+]([O-])CCOCC[N+](C)(C)C)OC.[Cl-] (stereo not drawn) [Ex. 44, N-[2-[2-(2-methoxy-3-octadecyloxypropylsulfinyl)ethoxy]ethyl]-N,N,N-trimethylammonium chloride]"
0.16,0.63,"CCCCCCCCCCCCCCCCCCOCC(C[S+]([O-])CCOCC[N+](C)(C)C)Oc1ccncn1.[Cl-] (stereo not drawn) [Ex. 35, N-[2-[2-[3-octadecyloxy-2-(pyrimidin-4-yloxy)propylsulfinyl]ethoxy]ethyl]-N,N,N-trimethylammonium chloride]"
0.63,1.25,"CCCCCCCCCCCCCCCCCCOCC(CSCCOCC[n+]1ccccc1)Oc1ccncn1.[Cl-] (stereo not drawn) [Ex. 32, N-[2-[2-[3-octadecyloxy-2-(pyrimidin-4-yloxy)propylthio]ethoxy]ethyl]pyridinium chloride]"
< 0.08,0.63,"CCCCCCCCCCCCCCCCCCOCC(CS(=O)(=O)CCOCC[n+]1ccccc1)Oc1ncccn1.[Cl-] (stereo not drawn) [Ex. 20, N-[2-[2-[3-octadecyloxy-2-(pyrimidin-2-yloxy)propylsulfonyl]ethoxy]ethyl]pyridinium chloride]"
0.32,1.25,"CCCCCCCCCCCCCCCCCCOCC(CS(=O)(=O)CCCCCOCCCCC[n+]1ccccc1)Oc1ncccn1.[Cl-] (stereo not drawn) [Ex. 42, N-[5-[5-[3-octadecyloxy-2-(pyrimidin-2-yloxy)propylsulfonyl]pentyloxy]pentyl]pyridinium chloride]"
1.25,5,O=C([O-])CCCn1cc[n+](CCOCCSCC(COCCCCCCCCCCCCC2CCCCC2)Oc2ncccn2)c1 (stereo not drawn) [Ex. 28]
0.32,5,"CCCCCCCCCCCCCCCCCCOCC(CSCCOCC[n+]1cccc(CCCCC(=O)[O-])c1)Oc1ncccn1 (stereo not drawn) [Ex. 37, 5-[1-[2-[2-[3-octadecyloxy-2-(pyrimidin-2-yloxy)propylthio]ethoxy]ethyl]pyridinio-3-yl]pentanoate]"
0.32,0.63,"CCCCCCCCCCCCCCCCCCOCC(C[S+]([O-])CCOCC[n+]1ccccc1)Oc1ccncn1.[Cl-] (stereo not drawn) [Ex. 34, N-[2-[2-[3-octadecyloxy-2-(pyrimidin-4-yloxy)propylsulfinyl]ethoxy]ethyl]pyridinium chloride]"
0.63,2.5,"CCCCCCCCCCCCCCCCCCOCC(CSCCOCC[n+]1ccn(CCCCCC(=O)[O-])c1)Oc1ccncn1 (stereo not drawn) [Ex. 33, 6-[3-[2-[2-[3-octadecyloxy-2-(pyrimidin-4-yloxy)propylthio]ethoxy]ethyl]imidazolio-1-yl]hexanoate]"
0.16,0.32,"CCCCCCCCCCCCCCCCCCOCC(C[S+]([O-])CCOCC[N+]1(C)CCCC1)Oc1ncccn1.[Cl-] (stereo not drawn) [Ex. 30, N-methyl-N-[2-[2-[3-octadecyloxy-2-(pyrimidin-2-yloxy)propylsulfinyl]ethoxy]ethyl]pyrrolidinium chloride]"
0.16,0.63,"CCCCCCCCCCCCCCCCCCOCC(C[S+]([O-])CCOCC[n+]1ccc(N(C)C)cc1)Oc1ncccn1.[Cl-] (stereo not drawn) [Ex. 7, 4-dimethylamino-1-[2-[2-[3-octadecyloxy-2-(pyrimidin-2-yloxy)propylsulfinyl]ethoxy]ethyl]pyridinium chloride]"
0.63,1.25,"CCCCCCCCCCCCCCCCCCOCC(CSCCCOCCC[n+]1ccn(CCCCCC(=O)[O-])c1)Oc1ncccn1 (stereo not drawn) [Ex. 13, 6-[3-[3-[3-[3-octadecyloxy-2-(pyrimidin-2-yloxy)propylthio]propoxy]propyl]imidazolio-1-yl]hexanoate]"
0.16,0.63,"CCCCCCCCCCCCCCCCCCOCC(CS(=O)(=O)CCCOCCC[n+]1ccccc1)Oc1ncccn1.[Cl-] (stereo not drawn) [Ex. 16, N-[3-[3-[3-octadecyloxy-2-(pyrimidin-2-yloxy)propylsulfonyl]propoxy]propyl]pyridinium chloride]"
0.32,1.25,"CCCCCCCCCCCCCCCCCCOCC(CS(=O)(=O)CCCOCCC[N+](C)(C)C)Oc1ncccn1.[Cl-] (stereo not drawn) [Ex. 17, N-[3-[3-[3-octadecyloxy-2-(pyrimidin-2-yloxy)propylsulfonyl]propoxy]propyl]-N,N,N-trimethylammonium chloride]"
0.16,0.32,"CCCCCCCCCCCCCCCCCCOCC(C[S+]([O-])CCOCC[n+]1cccc2ccccc21)Oc1ncccn1 (stereo not drawn) [Ex. 5, N-[2-[2-[3-octadecyloxy-2-(pyrimidin-2-yloxy)propylsulfinyl]ethoxy]quinolinium chloride]"
0.63,2.5,"CC(C)CCCC(C)CCCC(C)CCCC(C)CCOCC(CSCCOCC[n+]1ccn(CCCCCC(=O)[O-])c1)Oc1ncccn1 (stereo not drawn) [Ex. 38, 6-[3-[2-[2-[2-(pyrimidin-2-yloxy)-3-(3,7, 11,15-tetramethylhexadecyloxy)propylthio]ethoxy]ethyl]-imidazolio-1-yl)hexanoate]"
0.16,0.63,"CC(C)CCCC(C)CCCC(C)CCCC(C)CCOCC(C[S+]([O-])CCOCC[n+]1ccccc1)Oc1ncccn1.[Cl-] (stereo not drawn) [Ex. 39, N-[2-[2-[2-(pyrimidin-2-yloxy)-3-(3,7,11, 15-tetramethylhexadecyloxy)propylsulfinyl]ethoxy]ethyl]-pyridinium chloride]"
0.32,1.25,"CCCCCCCCCCCCCCCCCCOCC(CSCCOCC[N+](C)(C)C)OC (stereo not drawn) [Ex. 43, N-[2-(2-methoxy-3-oxtadecyloxypropylthio)ethoxy]ethyl-N,N,N-trimethylammonium chloride]"
0.63,1.25,"CCCCCCCCCCCCCCCCCCOCC(CSCCOCCOCC[N+](C)(C)C)Oc1ncccn1 (stereo not drawn) [Ex. 47, N-[2-[2-[2-[3-octadecyloxy-2-(pyrimidin-2-yloxy)propylthio]ethoxy]ethoxy]ethyl]-N,N,N,trimethylammonium chloride]"
1.25,1.25,"CCCCCCCCCCCCCCCCCCOCC(CS(=O)(=O)CCCOCCC[n+]1ccsc1)Oc1ncccn1 (stereo not drawn) [Ex. 15, 3-[3-[3-octadecyloxy-2-(pyrimidin-2-yloxy)propylsulfonyl]propoxy]propylthiazolium chloride]"
0.32,2.5,"CCCCCCCCCCCCCCCCCCOCC(CSCCOCC[n+]1cccc(CCCCC(=O)[O-])c1)OC (stereo not drawn) [Ex. 46, 5-[1-[2-[2-(2-methoxy-3-octadecyloxypropylthio)ethoxy]ethyl]pyridinio-3-yl]-pentanoate]"
0.16,0.63,"CCCCCCCCCCCCCCCCCCOCC(C[S+]([O-])CCOCCOCC[N+](C)(C)C)Oc1ncccn1.[Cl-] (stereo not drawn) [Ex. 48, N-[2-[2-[3-octadecyloxy-2-(pyrimidin-2-yloxy)propylsulfinyl]ethoxy]ethoxy]ethyl-N,N,N-trimethylammonium chloride]"
1.25,1.25,"CCCCCCCCCCCCCCCCCCOCC(C[S+]([O-])CCCOCCC[n+]1ccsc1)Oc1ncccn1 (stereo not drawn) [Ex. 18, 3-[3-[3-octadecyloxy-2-(pyrimidin-2-yloxy)propylsulfinyl]propoxy]propylthiazolium chloride]"
0.32,1.25,"CCCCCCCCCCCCCCCCCCOCC(CSCCOCC[N+]1(C)CCCC1)Oc1ncccn1.[Cl-] (stereo not drawn) [Ex. 22, N-methyl-N-[2-[2-[3-octadecyloxy-2-(pyrimidin-2-yloxy)propylthio]ethoxy]ethyl]pyrrolidinium chloride]"
